This is an account of results in patent US20060210491A1, “Flavoured mouth wash composition” (priority 2003, published 2006).

In brackets after ≈: the same amount, converted by molar mass. Where two headings read alike, the source gives them in different places.

For experiment [1], the system named is protease activity (arg-gingipain) of Porphyromonas gingivalis. The experiment is described as follows: Protease enzyme assay (BAPNA substrate), synergy of flavour material with antimicrobial agent. The class given is biochemical, Porphyromonas gingivalis W50. The note with it: compared with flavour material alone; for Classes of Synergy, increase in inhibition; Antimicrobial Agent Triclosan: flavour material 2500 ppm and 5000 ppm plus sub-MIC triclosan; for Classes of Synergy, increase in inhibition; Antimicrobial Agent Zinc Sulphate: flavour material 2500 ppm and 5000 ppm plus sub-MIC zinc sulphate. The procedure: The following assay was used to investigate the inhibition of protease activity (arg-gingipain) of the micro-organism Porphyromonas gingivalis (implicated in gum disease) by a flavour material or mixture of flavour materials.
Fresh buffer was prepared immediately before beginning the assay in the following manner: 3.029 g of Tris Base (Sigma, Poole, UK), 394 mg of L-cysteine hydrochloride (Sigma, Poole, UK) and 367.5 mg of calcium chloride dihydrate (Sigma, Poole, UK) were dissolved in 150 ml deionised water. In order to allow for pH differences resulting from any variation in ambient temperature, the temperature of the buffer was taken. The pH of TRIS buffers varies with temperature i.e. Δ pH=−0.031/° C. This assay should be carried out at a temperature of 30° C., with the buffer having a pH of 8.0. Thus, if the measured temperature of the buffer is, for example, 22° C. (room temperature) the pH should be adjusted to 8.24 with 2M hydrochloric acid, in order to give the desired conditions i.e. pH=8.0 at 30° C. After adjusting the pH, the buffer was made up to 200 ml with deionised water and incubated in a water bath at 30° C. for approximately one hour to reach temperature equilibrium before commencing the assay.
The enzyme substrate BAPNA (DL-α-benzoyl-DL-arginyl-p-nitro-anilide) (Sigma) is the synthetic substrate for the protease enzyme produced by the bacterium Porphyromonas gingivalis. The substrate is degraded by enzymes which show specificity for cleaving adjacent to arginine residues. This cleavage yields a yellow nitro-aniline product, which can be readily detected spectrophotometrically at 405 nm. 10.87 mg of the BAPNA substrate was added to 0.5 ml of dimethylsulphoxide (DMSO) and thoroughly dissolved. 9.5 ml of deionised water was then added. The resulting solution was then mixed by vortex and incubated at 30° C. in a water bath for about one hour before commencing the assay to allow temperature equilibration.
Porphyromonas gingivalis W50 ATCC 53978 (American Type Culture Collection (ATCC), P.O. Box 1549, Manassas, Va. 20108, USA) (may also be obtained from Prof. Philip Marsh, Centre for Applied Microbiology and Research, Salisbury, Wiltshire, SP4 OJG, UK) was sub-cultured from frozen stock cultures onto Schaedler Anaerobic Agar (Oxoid, Basingstoke, UK), and supplemented with 5% v/v horse blood (E&O Laboratories, Bonnybridge, Scotland, FK4 2HH). The plates were incubated at 37° C. in an anaerobic cabinet (Don Whitley Scientific, Shipley, UK) for 3-5 days. Single colonies grown on these plates were then inoculated into 250 ml Schaedler Anaerobic Broth (SAB) contained in bottles with cotton wool stoppers. The broths were then incubated in an anaerobic cabinet and allowed to grow for 3-5 days. This generally yielded a culture with an absorbance at 540 nm (A540) between 0.2 and 0.4.
Into 1.5 ml disposable plastic cuvettes was added 0.7 ml of assay buffer, followed by 0.2 ml of BAPNA solution and 0.1 ml of bacterial culture. The cuvettes were capped and mixed, then placed in a Pye Unicam 8620 Spectrophotometer (Pye Unicam, Cambridge, UK). The increase in absorbance at 405 nm […] was recorded over a period of 3 minutes.
The percentage inhibition of protease by a given flavour/flavour material was determined by the formula: [formula]
The synergy between flavour/flavour material and an antimicrobial agent against the protease activity of Porphyromonas gingivalis was then determined in the following manner. Firstly, the MIC value of the antimicrobial agent required to cause any inhibition of protease activity was determined using the method generally described in Example 1 for the determination of the MIC value of triclosan. […] The dilution immediately lower than the MIC value was selected as the sub-IC concentration of antimicrobial agent. All flavour materials were tested at 2500 ppm and 5000 ppm.
The percentage inhibition of protease by the flavour material and antimicrobial agent was determined as described above.

In another experiment the test system is Streptococcus mutans R9. The experiment in a line: Minimum inhibitory concentration (MIC), microtitre broth dilution. The class given is cell-based. The procedure:
The minimum inhibitory concentration of an antimicrobial agent (triclosan), and a flavour material or mixture of flavour materials (flavour), was determined by the following method.
A culture of the test strain Streptococcus mutans R9, deposited under the Budapest Treaty with National Collections of Industrial, Food and Marine Bacteria Limited, 23 St Machar Drive, Aberdeen, AB24 3RY, Scotland, UK on 22nd Jan. 2004 and given accession number NCIMB 41209) (may also be obtained from Prof. Philip Marsh, Centre for Applied Microbiology and Research, Salisbury, Wiltshire, SP4 OJG, UK) was grown in 250 ml of PM broth (containing: peptone, 2% w/v; tryptone, 1% w/v; yeast extract, 1% w/v; KCl, 0.25% w/v; of approximately pH 7), anaerobically at 37° C. for 48 hours. The absorbance of the culture at 540 nm (A540) was measured and adjusted if necessary to between 0.2-0.3 by diluting with fresh (i.e. sterile) PM broth. The culture was then diluted in Schaedler Anaerobic Broth (SAB) (Oxoid, Basingstoke, UK) in a ratio of 1 part culture to 25 parts broth to give a stock inoculum culture.
Determination of the MIC of Triclosan Against S. mutans
Triclosan powder was dissolved in AR-grade ethanol, to a concentration of 32,000 ppm (3.2% w/v). This was diluted in Schaedler Anaerobic Broth (SAB) to yield two stock triclosan solutions of concentrations: 320 ppm (0.032% w/v) and 64 ppm (0.0064% w/v).
200 μl of the 320 ppm triclosan stock solution was then added to the first and seventh well of row A on a standard 96-well microtitre plate. All remaining wells in this row were filled with 100% of sterile SAB. The contents of well 1 and the contents of well 7 were independently mixed by repeatedly sucking the contents up and down a pipette tip. 100 μl from well 1 was transferred to the second well of row A and 100 μl from well 7 was transferred to the eighth well of row A. This process was repeated along the row until the sixth and twelfth wells contained 200 μl. After mixing, 100 μl from wells 6 and 12 was discarded to waste. Each successive well in row A therefore contained a two-fold dilution of triclosan compared with the preceding well (i.e. 80 ppm in wells 2 and 8; 40 ppm in wells 3 and 9, etc.), resulting in wells 6 and 12 having a concentration of 5 ppm. A similar series of dilutions was repeated starting with the 64 ppm triclosan stock solution into row B on a microtitre plate. This gave a range of triclosan concentrations from 32 ppm to 1 ppm following the dilution process described. Finally, 100 μl of the pre-diluted stock inoculum culture was added to all wells, thus giving a final volume of 200 μl in each well. Wells 1 and 7 of row A therefore contained a final concentration of 160 ppm triclosan.
A blank plate was prepared for each of the two samples by repeating the process described above, except that 100 μl of SAB was added instead of bacterial culture. This plate was used as the control plate against which the test plate(s) could be read.
Test and control plates were sealed using autoclave tape and incubated for 48 hours anaerobically at 37° C.
A microtitre plate reader (Model MRX, Dynatech Laboratories) was preset to gently agitate the plates and mix the contents. The absorbance at 540 nm “A540” was used as a measure of turbidity resulting from bacterial growth. The control, un-inoculated plate for each set of samples was read first, and the plate reader then programmed to use the control readings to blank all other plate readings for the inoculated plates for the same set of test materials (i.e. removing turbidity and possible colour changes during incubation which are due to chemical interactions). Thus, the corrected readings generated were absorbances resulting from turbidity from bacterial growth. The MIC was taken as the lowest concentration of triclosan required to inhibit growth so that the change in absorbance during the incubation period was <0.2 A540. […]

The next experiment deals with S. mutans. The experiment is described as follows: Potential synergy of triclosan with flavour materials (growth at sub-MIC concentrations). Type of experiment: cell-based, Streptococcus mutans. The settings on record: for Synergy Shown: flavour material with triclosan against S. mutans; for 50% MIC without triclosan: growth of S. mutans with flavour material at 50% of its MIC alone; for 50% MIC and 8 ppm triclosan: growth of S. mutans with flavour material at 50% of its MIC plus 8 ppm triclosan. The method, then:
This example describes a method for determining the potential synergy of triclosan with flavour materials against S. mutans.
A microtitre method using the procedure described below was employed.
Flavour materials were assessed at a final concentration of 50% of the MIC value determined according to Example 1 above, in combination with triclosan at 8 ppm, i.e. about 50% of the MIC value also determined as described in Example 1. Inhibition of growth by this combination of sub-MIC concentrations of flavour material and triclosan was taken to indicate antimicrobial synergy between the flavour material and triclosan.
100 μl of stock solution was added to the appropriate well of a standard 96-well microtitre plate. An equivalent volume of bacterial stock inoculum solution (prepared as in Example 1) was added giving the desired dilution in each well. A blank plate was prepared using the same process except that 100 μl of SAB was added instead of bacterial culture. The protocol for incubation, reading of results and interpretation was as described in Example 1.

The mark [2] stands for this setting: flavour material against S. mutans R9, 48 hours anaerobically at 37° C., read-out: MIC (ppm).

Regarding `CCCCCCCCCO` [Alcohol C9, nonanol], in experiment [1], the “Classes of Synergy, increase in inhibition; Antimicrobial Agent Triclosan” value is on record as “− (− = <15% increase in inhibition)” and the “Classes of Synergy, increase in inhibition; Antimicrobial Agent Zinc Sulphate” value is given as “+ (+ = >15% increase in inhibition)”. The MIC with Streptococcus mutans R9 (setting [2]) came to 5000 µg/mL (≈ 34.7 mM). In the experiment on S. mutans, the “Synergy Shown” value is “Yes”; the “50% MIC without triclosan” value is “+”; the “50% MIC and 8 ppm triclosan” value is on record as “−”.

Take `CCCCCCCCCCO` [Alcohol C10, decanol]: in experiment [1], the “Classes of Synergy, increase in inhibition; Antimicrobial Agent Triclosan” value is “+ (+ = >15% increase in inhibition)” and the “Classes of Synergy, increase in inhibition; Antimicrobial Agent Zinc Sulphate” value was “+ (+ = >15% increase in inhibition)”. Besides, in the experiment with Streptococcus mutans R9 (setting [2]), the MIC worked out at 5000 µg/mL (≈ 31.6 mM). Also, in the experiment with S. mutans, the “Synergy Shown” value is given as “Yes”; the “50% MIC without triclosan” value is on record as “+”; the “50% MIC and 8 ppm triclosan” value is “−”.

As for `CCCCCCCCC=O` [Aldehyde C9, nonanal], in the experiment on Streptococcus mutans R9 (setting [2]), the minimum inhibitory concentration (MIC) worked out at 5000 µg/mL (≈ 35.2 mM). Also, in the experiment with S. mutans, the “Synergy Shown” value is “Yes”; the “50% MIC without triclosan” value was “+”; the “50% MIC and 8 ppm triclosan” value was “−”.

As to `CCCCCCCCCC=O` [Aldehyde C10, decanal], the MIC in the experiment with Streptococcus mutans R9 (setting [2]) stood at 5000 µg/mL (≈ 32 mM). Besides, in the experiment on S. mutans, the “Synergy Shown” value is recorded as “Yes”; the “50% MIC without triclosan” value is reported as “+”; the “50% MIC and 8 ppm triclosan” value is given as “−”.

Turning to `C/C=C/c1ccc(OC)cc1` [Anethole Synthetic, anethole synthetic], in experiment [1], the “Classes of Synergy, increase in inhibition; Antimicrobial Agent Triclosan” value is “− (− = <15% increase in inhibition)” and the “Classes of Synergy, increase in inhibition; Antimicrobial Agent Zinc Sulphate” value is on record as “− (− = <15% increase in inhibition)”.

On to `CCCC(=O)OCc1ccccc1` [Benzyl Butyrate, benzyl butyrate], for which the “Classes of Synergy, increase in inhibition; Antimicrobial Agent Triclosan” value in experiment [1] is on record as “− (− = <15% increase in inhibition)”.

Consider `O=C(OCc1ccccc1)c1ccccc1` [Benzyl benzoate, benzyl benzoate], for which, in experiment [1], the “Classes of Synergy, increase in inhibition; Antimicrobial Agent Triclosan” value was “+ (+ = >15% increase in inhibition)” and the “Classes of Synergy, increase in inhibition; Antimicrobial Agent Zinc Sulphate” value is “− (− = <15% increase in inhibition)”.

As for `O=C/C=C/c1ccccc1` [Cinnamic Aldehyde Extra, cinnamic aldehyde], it took 625 µg/mL (≈ 4.73 mM) to inhibit growth against Streptococcus mutans R9 (R9, 48 h) (MIC). Further, in the experiment with S. mutans, the “Synergy Shown” value was “Yes”; the “50% MIC without triclosan” value is “+”; the “50% MIC and 8 ppm triclosan” value is “−”.

With `CC/C=C\CCO` [Cis-3-hexenol, cis-3-hexenol], in experiment [1], the “Classes of Synergy, increase in inhibition; Antimicrobial Agent Triclosan” value is on record as “− (− = <15% increase in inhibition)” and the “Classes of Synergy, increase in inhibition; Antimicrobial Agent Zinc Sulphate” value was “+ (+ = >15% increase in inhibition)”.

On to `COC(=O)C=Cc1ccccc1` [Methyl Cinnamate, methyl cinnamate], for which, in experiment [1], the “Classes of Synergy, increase in inhibition; Antimicrobial Agent Triclosan” value is given as “+ (+ = >15% increase in inhibition)” and the “Classes of Synergy, increase in inhibition; Antimicrobial Agent Zinc Sulphate” value is listed as “− (− = <15% increase in inhibition)”.

For `Oc1cc(Cl)ccc1Oc1ccc(Cl)cc1Cl` [triclosan, 2′,4,4′-trichloro-2-hydroxy-diphenyl ether, reference compound], the minimum inhibitory concentration (MIC) in the experiment with Streptococcus mutans R9 (R9, 48 h, read-out: MIC for triclosan against S. mutans R9) was 10 to 16 µg/mL (≈ 0.0345 to 0.0553 mM).
